Here are results for 16 compounds from patent publication US9796676B2, “Honeybee repellents and uses thereof” (Inscent, Inc., priority 2013, dated 2017).

Assay [1] concerns Apis mellifera Carniolan foraging worker honeybees. Nature of the assay: Proboscis extension response (PER) assay with bees conditioned to 2-heptanone. The settings on record: 0.5% compound in Triton X-100/water on filter paper, 4 s exposure; only bees giving PER with 2-heptanone and not with water or 15% Triton X-100 controls counted. It is filed as in vivo. As for the experimental part: To determine whether a living honeybee can recognize a candidate compound, these compounds were tested using a proboscis extension response (PER) assay using classical conditioning approaches. Proboscis extension response conditioning is a case of appetitive learning, in which bees learn to associate odor stimuli with sucrose reward in the laboratory. In this case, bees were conditioned to produce a PER to 2-heptanone as the conditioned stimulus and a sugar reward as the unconditioned stimulus. These trained bees were then exposed to an odor pulse of a candidate compound to test whether a candidate compound would also produce a PER. If the candidate compound “mimics” 2-heptanone then the honeybee will extend its proboscis.
For conditioning procedures, Apis mellifera Carniolan foraging worker honeybees were obtained from a local apiary (typically 60 bees per shipment). The honeybees were held overnight in insect cages with food and water freely available, in an environmentally controlled room on a light cycle similar to the ambient cycle at the time of the assay.
For conditioning procedures, all tests were done in an odorant delivery apparatus set inside a fume hood. The apparatus comprised a set of open-ended, horizontal, 3 cm diameter by 10 cm long plastic tubes. Each tube was designed where a honeybee could be positioned at the distal end of a tube, with the opening at the other end of the tube located proximal to an inlet of the fume hood. To deliver an odorant, room air was pumped by a diaphragm pump through a particle filter via 0.25 inch plastic tubing at approximately 0.7 m/sec. The air flow passes into the headspace above an odorant (0.5% [v/v] 2-heptanone dissolved in odorless light paraffin oil) contained in a 100 mL bottle. The headspace air then passes through another plastic tube to a manifold of 4-way valves, each of which was attached near the proximal end of a plastic tube containing a bee. Each bee was exposed separately for a desired time period to the odorant by opening and closing the appropriate valve. When each valve was closed, the odor was flushed away immediately by the continuous fume hood air stream.
To train a honeybee to respond to a conditioned and unconditioned stimuli, bees were placed, without anesthesia, in individual 1.5 mL micro-centrifuge holding tubes and held overnight without access to food or water. The holding tubes containing the starved bees were placed in racks in groups of eight. One rack at a time was placed behind the odorant delivery apparatus so that each bee's head is centered at the distal end of a horizontal plastic tube. Each bee was exposed to the 2-heptanone odorant alone for four seconds, and then while being fed an 80% sucrose solution for and additional three seconds. The sucrose solution was delivered on a piece of saturated filter paper held in forceps. […] Positive and negative responses were recorded. A positive PER was scored when a bee extended its proboscis before the sucrose appeared. In a typical trial, 48 individual bees were subjected to conditioning.
After conditioning, honeybees were tested with the candidate compounds the same day or on the following day or, most commonly, both. When held overnight, bees were fed with sucrose and kept in their holding tubes. When tested the day after training, bees were given one or more rounds of conditioning with 2-heptatone to refresh their memories. Candidate compounds stocks were made at 5% (w/v) in polyoxyethylene octyl phenyl ether (TRITON® X-100), a non-ionic detergent/surfactant, and stored at 4° C. […] Test solutions were made fresh daily by mixing stock solutions with water for a final compound concentration of 0.5%. A solution of 0.5% 2-heptanone in paraffin oil was used as a positive control.

Another assay relates to OBP2. Nature of the assay: Fluorescent-quench ligand-protein-binding assay (OBP2 binding). Also noted: species or system Apis mellifera. The text has this: To identify a honeybee repellent disclosed herein, candidate compounds were screened based upon the fact that 2-heptanone is an established repellent of bees. 2-heptanone is thought to mediate its behavioral response through binding to a specific odorant-binding protein called OBP2. […] Such assays are generally known in the art. See, e.g., Briand, et al., Ligand-Binding Properties and Structural Characterization of a Novel Rat Odorant-Binding Protein Variant, Eur. J. Biochem. 267(10): 3079-3089 (2000); Briand, et al., Ligand Binding and Physico-Chemical Properties of ASP2, A Recombinant Odorant-Binding Protein From Honeybee (Apis mellifera L.), Eur. J. Biochem. 268(3): 752-760 (2001); Briand, et al., Characterization of a Chemosensory Protein (ASP3c) from Honeybee (Apis mellifera L.) as a Brood Pheromone Carrier, Eur. J. Biochem. 269(18): 4586-4596 (2002), each of which is hereby incorporated by reference in its entirety.

As to `CCOC(=O)CSc1nc2c(c(=O)n1-c1ccccc1)C1(CCCC1)Cc1ccccc1-2` [compound 71], the “2-heptanone positive bees testing positive to compound” value in assay [1] came out at 19.1%. Moreover, the “OBP2 binding characteristic of compound” value in the assay on OBP2 was “Moderate (Moderate, indicates that 50% or less of the compound bound to OBP2.)”.
`O=C1CSC(=O)N1CC(O)Cn1c2ccc(Cl)cc2c2cc(Cl)ccc21` (stereo not drawn) [compound 72]: the “2-heptanone positive bees testing positive to compound” value in assay [1] was determined as 2.3%. Further, the “OBP2 binding characteristic of compound” value in the assay on OBP2 is listed as “Moderate (Moderate, indicates that 50% or less of the compound bound to OBP2.)”.
For `O=C(c1ccccc1)N1N=C(C(F)(F)F)CC1(O)c1ccccc1O` (stereo not drawn) [compound 73], in assay [1], the “2-heptanone positive bees testing positive to compound” value turned out to be 8.3%. Further, in the assay with OBP2, the “OBP2 binding characteristic of compound” value was “Moderate (Moderate, indicates that 50% or less of the compound bound to OBP2.)”.
Consider `c1ccn(-c2ncnc3sc4c(c23)CCCC4)c1` [compound 77], for which the “2-heptanone positive bees testing positive to compound” value in assay [1] turned out to be 14.3%. The “OBP2 binding characteristic of compound” value with OBP2 was “Moderate (Moderate, indicates that 50% or less of the compound bound to OBP2.)”.
Consider `CCOC(=O)c1c(-c2ccccc2)csc1NC(=S)NC(C)=O` [compound 78], for which the “2-heptanone positive bees testing positive to compound” value in assay [1] was 7.7%. Also, in the assay on OBP2, the “OBP2 binding characteristic of compound” value is “Moderate (Moderate, indicates that 50% or less of the compound bound to OBP2.)”.
`Cc1cc(C)c(O)c(N=Cc2cc(I)cc(I)c2O)c1` [compound 82]: in assay [1], the “2-heptanone positive bees testing positive to compound” value was 6.4%. The “OBP2 binding characteristic of compound” value with OBP2 is recorded as “Moderate (Moderate, indicates that 50% or less of the compound bound to OBP2.)”.
In the case of `COc1ccc2ccccc2c1C=Nc1cc(C)ccc1C` [compound 84], the “2-heptanone positive bees testing positive to compound” value in assay [1] worked out at 27.9%. For the same compound, the “OBP2 binding characteristic of compound” value in the assay on OBP2 is given as “Moderate (Moderate, indicates that 50% or less of the compound bound to OBP2.)”.
In the case of `O=C1NC(=S)SC1=Cc1ccc(N2CCOCC2)c([N+](=O)[O-])c1` [compound 85], in assay [1], the “2-heptanone positive bees testing positive to compound” value is on record as 18.0%. Further, in the assay on OBP2, the “OBP2 binding characteristic of compound” value is “Moderate (Moderate, indicates that 50% or less of the compound bound to OBP2.)”.
As to `Oc1ccc(Br)cc1C=Nc1ccc(NCc2ccccc2)cc1` [compound 87], the “2-heptanone positive bees testing positive to compound” value in assay [1] came out at 9.5%. The “OBP2 binding characteristic of compound” value in the assay with OBP2 is given as “Moderate (Moderate, indicates that 50% or less of the compound bound to OBP2.)”.
For the compound `O=C1c2ccccc2C(=O)c2c1ccc1c(=O)n(C3CCCCC3)[nH]c21` [compound 88], in assay [1], the “2-heptanone positive bees testing positive to compound” value came to 14.3%. Further, the “OBP2 binding characteristic of compound” value in the assay on OBP2 is reported as “Moderate (Moderate, indicates that 50% or less of the compound bound to OBP2.)”.
Turning to `Cc1cc(C)c2ccc(C=Cc3ccccc3N)nc2c1O` [compound 90], in assay [1], the “2-heptanone positive bees testing positive to compound” value came out at 17.0%. The “OBP2 binding characteristic of compound” value in the assay on OBP2 is recorded as “Moderate (Moderate, indicates that 50% or less of the compound bound to OBP2.)”.
As to `C=CCN1C(=O)C(=Cc2cccc([N+](=O)[O-])c2O)SC1=S` [compound 91], the “2-heptanone positive bees testing positive to compound” value in assay [1] came to 17.3%. The “OBP2 binding characteristic of compound” value in the assay on OBP2 is “Moderate (Moderate, indicates that 50% or less of the compound bound to OBP2.)”.
For the compound `C(=NN(c1ccccc1)c1ccccc1)c1ccncc1` [compound 92], the “2-heptanone positive bees testing positive to compound” value in assay [1] amounted to 7.0%. In the assay on OBP2, the “OBP2 binding characteristic of compound” value is on record as “Moderate (Moderate, indicates that 50% or less of the compound bound to OBP2.)”.
For the compound `O=C1CCC(=O)N1CC(O)Cn1c2ccc(Br)cc2c2cc(Br)ccc21` (stereo not drawn) [compound 93], the “2-heptanone positive bees testing positive to compound” value in assay [1] is 14.0%. Moreover, the “OBP2 binding characteristic of compound” value with OBP2 is “Moderate (Moderate, indicates that 50% or less of the compound bound to OBP2.)”.
As for `O=C(NC(=S)Nc1cccc2cccnc12)c1cccs1` [compound 117], the “OBP2 binding characteristic of compound” value in the assay with OBP2 is listed as “Moderate (Moderate, indicates that 50% or less of the compound bound to OBP2.)”.
In the case of `COc1cccc(C=C2SC(=N)NC2=O)c1OCc1ccc(Cl)cc1Cl` [compound 118], the “OBP2 binding characteristic of compound” value in the assay with OBP2 is “Moderate (Moderate, indicates that 50% or less of the compound bound to OBP2.)”.
